The values below are quoted from earlier work in patent US10617778B2, “Self-sterilizing package and methods for making and using the same” (priority 2014, dated 2020).

This data set deals with humans.

`[O][Cl+][O-]` [chlorine dioxide]: the “vapor concentration at which the gas can be toxic” value is “greater than 0.3 ppm”.
